The text below walks through data of paper PMC7363885, “Fluorescent artificial receptor-based membrane assay (FARMA) for spatiotemporally resolved monitoring of biomembrane permeability” (Communications Biology, 2020).

Some results are limits rather than exact numbers.

A short description of series [1]: FARMA: permeation of analytes into FAR-loaded liposomes (fluorescence, cuvette or stopped-flow). The settings on record: for membrane permeability (in words): FARMA with FAR-loaded liposomes or GUVs. The text has this:
Elementary physical parameters, such as permeability coefficients, can be extracted from the full kinetic FARMA data. This kinetic profile → parameter mapping requires some assumptions to be made in regard to the permeation mechanism. We applied a reported permeation model for liposomes[31] to arrive at permeation rate constants (kp) and apparent permeability coefficients (Papp). The derivation of the mathematical relation (1), linking the fundamental permeability rate constant and permeability coefficient to experimental measurable kobs rate constants, the known total analyte and total FAR concentration, and the experimentally determined liposome radius (r), is shown in the Supplementary Information.1 Papp=kp⋅r/3=kobs/canalyte⋅cFAR⋅r/3 […]
The volume-to-surface correction factor r/3 accounts for the fact that the observed rates depend on the size, i.e., radius r, of the liposomal assembly. […] The initial-rate method can also be applied, see the Supplementary Information. Moreover, kobs/canalyte can be estimated by single-point measurements at selected canalyte concentration.
A solution of 2.5 mg/mL of POPC and 0.33 mg/mL of POPS in chloroform was purged with nitrogen and dried overnight under […] vacuum. […] The resulting FAR-loaded liposomes were separated from non-encapsulated species by size-exclusion chromatography (NAP-25 column), while maintaining the same buffer. The absence of non-encapsulated FAR was confirmed by adding a non-membrane-permeable species such as tryptophan to a fluorescence cuvette containing 25 µL of liposomes diluted in 1 mL HEPES (10 mM) buffer. Complete removal of non-encapsulated FAR is indicated by the absence of a significant fluorescence change upon Trp addition.
In a typical experiment, 20 µL of liposome solution loaded with FAR was diluted in 1 mL HEPES buffer (10 mM, pH 7.0) in a 1 mL quartz cuvette. An emission spectrum was recorded after 10 min of “equilibration time” on a Varian Eclipse spectrofluorometer thermostated at 22 °C with a water bath using λexc = 400 nm for FAR-1, λexc = 310 nm for FAR-2, and λexc = 330 nm for FAR-3. In the time-resolved experiments, the emission intensity at λobs = 450 nm for FAR-1, λobs = 370 nm for FAR-2, and λobs = 370 and 500 nm for FAR-3 (the latter is the emerging excimer band for certain FAR-3•analyte complexes) was recorded with an averaging time of 0.5 s. […] For single-point experiments, a full spectrum was recorded after a fixed time or several time intervals after analyte addition. […] Only FAR-analyte combinations were used for FARMA, for which no significant autofluorescence and competitive light absorption of the analyte occurred.
For each experiment, measurements from 6 injections were accumulated and the average of these traces was used for data analysis.
Calculation of the unimolecular permeation rate constants ( kp) and of the apparent permeability coefficients (Papp).
The passive diffusion (permeation) of small non-charged compounds follows a modified Fick’s law and can be expressed by a first order kinetics.1 Similar to first order chemical reactions, the kinetics curve can therefore be fitted monoexponentially to obtained the observed permeation rates (kobs). In our assay set-up, such an exponential fit is an approximation, since it neglects that a certain fraction of transported analyte is bound to the FAR and cannot exit the liposome. Nevertheless, the fit of the kinetic curves of the […]
approximation is justified.

The test system of another series is FAR-1. The series can be described thus: Fluorescence titration, FAR•analyte complex formation in homogeneous solution. The settings on record: FAR-1; 10 mM HEPES buffer (pH 7); 1:1 binding model; error estimate ≤ 20%. It is filed as binding. On the procedure: Fluorescence titrations were carried out in aqueous HEPES buffer (10 mM, pH 7, 22 °C) unless stated otherwise. To a solution of the FAR (typically at 10–30 μM) was stepwise added a solution of the analyte (typically up to 2 mM) and the fluorescence spectra were recorded. The normalized emissions at 450 nm (FAR-1) or at 370 nm (FAR-2) were fitted with an equation for a 1 : 1 binding by a least-square fit. The resulting affinity constants are reported in Supplementary Table 1. Representative titration plots are shown in Supplementary Fig. 1. Note that the high CB8-dye binding affinities correspond to a near quantitative degree of host-dye complexation, i.e., quantitative formation of the FAR, such that the subsequent binding of the analyte can be treated independently.

The mark [2] stands for this setting: monoexponential fit, analyte 40 µM (bulk), FAR-2 ca. 500 µM in the liposome interior, 20% error.

In the case of `Oc1ccccc1O` [1,2-dihydroxybenzene], the “membrane permeability (in words)” value in series [1] is ““instantaneously” permeating”. The Ka in the series with FAR-1 is on record as 20 10^3 M−1.
As for `CCc1ccc(O)cc1` [4Et-phenol, 4-ethylphenol], the values for the kobs in series [1] (setting [2]) and in series [1] (source data of Fig. 5) were 0.24 s–1 and 0.24, respectively. Moreover, the “log(kobs)” value in series [1] (source data of Fig. 5) is -0.6198. In the series on FAR-1, the Ka is 1.2 10^3 M−1.
`O=C1CCC(=O)N1c1ccccc1` [N-phenylsuccinimide]: the kobs in series [1] (setting [2]) is listed as 1.1 s–1. Moreover, in series [1] (source data of Fig. 5), the “kobs” value was determined as 1.1 and the “log(kobs)” value was 0.04139. Also, in the series on FAR-1, the Ka is 30 10^3 M−1.
For `COC(=O)[C@@H](N)Cc1c[nH]c2ccccc12` [TrpOMe, tryptophan methyl ester], the “membrane permeability (in words)” value in series [1] is reported as “rather quickly permeating”. In the series on FAR-1, the Ka was 14 10^3 M−1.
For `CNC[C@H](O)c1ccc(O)c(O)c1` [adrenaline], in that order: “very slowly permeating” and < 1 10^3 M−1.
Regarding `c1ccc2[nH]cnc2c1` [benzimidazole], the kobs in series [1] (setting [2]) was 2.7 s–1. For the same molecule, in series [1] (source data of Fig. 5), the “kobs” value was found to be 2.7 and the “log(kobs)” value is on record as 0.4314. For the same molecule, in the series with FAR-1, the Ka was 7.5 10^3 M−1.
Consider `NCCc1ccc(O)c(O)c1` [dopamine], for which the “membrane permeability (in words)” value in series [1] was “very slowly permeating”. For the same molecule, the Ka in the series with FAR-1 is on record as 0.10 10^3 M−1.
Turning to `c1ccc2ccccc2c1` [naphthalene], the “membrane permeability (in words)” value in series [1] was “permeating”. The Ka in the series with FAR-1 is > 50 10^3 M−1.
With `NCCc1ccccc1` [phenethylamine], in series [1] (setting [2]), the kobs is reported as 0.22 s–1. In series [1] (source data of Fig. 5), the “kobs” value was found to be 0.22 and the “log(kobs)” value is -0.6576. In the series on FAR-1, the Ka was 8 10^3 M−1.
As to `OC[C@H]1O[C@@H](Oc2ccccc2)[C@H](O)[C@@H](O)[C@H]1O` [phenyl-β-D-galactopyranoside], the “membrane permeability (in words)” value in series [1] is listed as “slowly permeating”. Also, the “time of FARMA signal response (t)” value in series [1] (slow response, without enzyme) is on record as > 5 min. The Ka in the series with FAR-1 was 30 10^3 M−1.
Turning to `CCC(=O)Nc1ccc(Cl)c(Cl)c1` [propanil], in series [1] (setting [2]), the kobs is given as 42 s–1. Further, in series [1] (source data of Fig. 5), the “kobs” value is recorded as 42 and the “log(kobs)” value was 1.623. Also, the Ka in the series with FAR-1 was 8 10^3 M−1.
On to `C=C(C)[C@H]1Cc2c(ccc3c2O[C@@H]2COc4cc(OC)c(OC)cc4[C@@H]2C3=O)O1` [rotenone], for which the Ka with FAR-1 is 4.8 10^3 M−1.
